For assay [1], the target named is T1, wild-type human progesterone receptor (Homo sapiens, UniProt P06401).
T1 construct: expressed in transfected cells; host or cells: COS cells (no endogenous progesterone receptor), pcDNAI/Amp vector
T1 sequence (P06401 1-933): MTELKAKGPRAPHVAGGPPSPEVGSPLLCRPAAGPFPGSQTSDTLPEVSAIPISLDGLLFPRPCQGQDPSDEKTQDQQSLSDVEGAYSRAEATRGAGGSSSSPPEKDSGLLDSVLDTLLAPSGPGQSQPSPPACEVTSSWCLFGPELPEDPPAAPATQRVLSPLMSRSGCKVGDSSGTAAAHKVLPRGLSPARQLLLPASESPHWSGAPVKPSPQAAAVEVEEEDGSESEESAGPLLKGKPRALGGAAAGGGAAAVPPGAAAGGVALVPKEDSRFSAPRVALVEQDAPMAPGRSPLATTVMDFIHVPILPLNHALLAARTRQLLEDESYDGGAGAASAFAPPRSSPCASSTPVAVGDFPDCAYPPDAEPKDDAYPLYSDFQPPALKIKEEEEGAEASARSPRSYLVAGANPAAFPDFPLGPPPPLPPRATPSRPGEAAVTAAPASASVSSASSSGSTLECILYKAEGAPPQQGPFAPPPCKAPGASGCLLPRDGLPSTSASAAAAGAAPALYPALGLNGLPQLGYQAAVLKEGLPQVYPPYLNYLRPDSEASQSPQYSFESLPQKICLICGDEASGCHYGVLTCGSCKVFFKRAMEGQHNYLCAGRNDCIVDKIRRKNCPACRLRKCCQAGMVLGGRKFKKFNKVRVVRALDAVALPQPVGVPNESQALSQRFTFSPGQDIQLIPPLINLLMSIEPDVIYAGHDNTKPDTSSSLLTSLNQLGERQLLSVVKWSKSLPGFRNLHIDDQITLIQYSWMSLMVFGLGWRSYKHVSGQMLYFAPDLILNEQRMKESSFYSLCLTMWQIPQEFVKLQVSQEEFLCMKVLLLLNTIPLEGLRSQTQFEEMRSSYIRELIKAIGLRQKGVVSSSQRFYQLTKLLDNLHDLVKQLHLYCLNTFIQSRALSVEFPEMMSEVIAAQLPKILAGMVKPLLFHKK
Put plainly: Hormone-binding Whole Cell Assay with Scatchard analysis, COS cells expressing wild-type receptor. Conditions: COS cells infected with 250 ng receptor DNA, 50-6400 pM [3H]R5020 overnight, Scatchard analysis (FIG. 7B), read-out: dissociation constant. Here is the method: (§1) To determine whether the increase in transcriptional activity found above was due to changes in hormone-binding affinity, hormone binding affinity was measured in a Whole Cell Assay, as described by Bai et al, Mol. Endo., 8(11):1465-1473 (1994), using DNA encoding both the mutant and wild-type progesterone receptor proteins.
(§2) More specifically, COS cells were infected with 250 ng of either mutant or wild-type receptor DNA, as described above, and the infected cells were incubated overnight in DME containing 5.0% (v/v) fetal calf serum and 50-6400 pM of [^3 H]R5020 (DuPont NEN, NET-555) before harvesting. Next, the harvested cells were subjected to ethanol extraction, and bound hormone was measured by CPM counting of the extracts.

Assay [2] addresses T2, mutant human progesterone receptor (valine to leucine at amino acid 660) (Homo sapiens, UniProt P06401, V660L).
T2 construct: expressed in transfected cells; host or cells: COS cells (no endogenous progesterone receptor), pcDNAI/Amp vector
T2 sequence (P06401 1-933 V660L): T1 sequence (P06401 1-933) with V660L
As to the kind of experiment: Hormone-binding Whole Cell Assay with Scatchard analysis, COS cells expressing mutant receptor. Conditions: COS cells infected with 250 ng receptor DNA, 50-6400 pM [3H]R5020 overnight, Scatchard analysis (FIG. 7B), read-out: dissociation constant. Here is the method: as §1, §2

Each structure is given as a SMILES string. Positions count from the first letter of the chain named.

As to `CCC(=O)[C@@]1(C)CC[C@H]2[C@@H]3CCC4=CC(=O)CCC4=C3CC[C@@]21C` [R5020], the Kd in assay [1] and in assay [2] was 250 pM throughout.
